Assay results: US20260232670A1, “TYRO3 SELECTIVE INHIBITORS AND USES THEREOF” (THE UNIVERSITY OF NORTH CAROLINA AT CHAPEL HILL, priority 2023, published 2026)

Tests used:
[1] = target: T1, MERTK (Homo sapiens, UniProt Q12866); assay: Microfluidic capillary electrophoresis (MCE) kinase activity assay, Mer; type: biochemical
T1 sequence (Q12866 21-999): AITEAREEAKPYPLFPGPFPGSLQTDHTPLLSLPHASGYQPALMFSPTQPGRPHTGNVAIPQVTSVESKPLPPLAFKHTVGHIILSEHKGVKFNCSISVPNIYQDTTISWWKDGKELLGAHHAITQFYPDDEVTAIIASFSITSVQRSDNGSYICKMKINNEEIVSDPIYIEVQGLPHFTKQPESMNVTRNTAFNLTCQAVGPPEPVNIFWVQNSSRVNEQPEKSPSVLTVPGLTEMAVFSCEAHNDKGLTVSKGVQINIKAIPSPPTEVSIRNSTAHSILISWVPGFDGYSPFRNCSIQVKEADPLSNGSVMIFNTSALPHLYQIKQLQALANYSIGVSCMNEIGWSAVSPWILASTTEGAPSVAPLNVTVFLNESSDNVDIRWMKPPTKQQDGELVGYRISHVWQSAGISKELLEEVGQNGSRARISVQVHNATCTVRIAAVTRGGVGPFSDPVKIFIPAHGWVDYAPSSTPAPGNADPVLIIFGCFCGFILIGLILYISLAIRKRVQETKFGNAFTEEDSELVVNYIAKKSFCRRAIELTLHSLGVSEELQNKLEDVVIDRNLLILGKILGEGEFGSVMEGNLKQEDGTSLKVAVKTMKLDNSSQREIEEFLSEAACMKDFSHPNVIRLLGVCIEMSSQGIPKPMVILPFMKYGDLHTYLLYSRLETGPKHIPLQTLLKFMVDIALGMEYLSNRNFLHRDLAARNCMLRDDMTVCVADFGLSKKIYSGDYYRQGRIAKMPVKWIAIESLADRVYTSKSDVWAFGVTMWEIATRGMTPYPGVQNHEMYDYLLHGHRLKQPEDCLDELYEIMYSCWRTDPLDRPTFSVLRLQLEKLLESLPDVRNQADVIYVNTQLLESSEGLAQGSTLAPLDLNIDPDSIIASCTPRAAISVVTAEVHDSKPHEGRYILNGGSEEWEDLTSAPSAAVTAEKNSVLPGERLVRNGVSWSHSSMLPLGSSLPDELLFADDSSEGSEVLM

[2] = target: T2, AXL (Homo sapiens, UniProt P30530); assay: Microfluidic capillary electrophoresis (MCE) kinase activity assay, Axl; type: biochemical
T2 sequence (P30530 26-894): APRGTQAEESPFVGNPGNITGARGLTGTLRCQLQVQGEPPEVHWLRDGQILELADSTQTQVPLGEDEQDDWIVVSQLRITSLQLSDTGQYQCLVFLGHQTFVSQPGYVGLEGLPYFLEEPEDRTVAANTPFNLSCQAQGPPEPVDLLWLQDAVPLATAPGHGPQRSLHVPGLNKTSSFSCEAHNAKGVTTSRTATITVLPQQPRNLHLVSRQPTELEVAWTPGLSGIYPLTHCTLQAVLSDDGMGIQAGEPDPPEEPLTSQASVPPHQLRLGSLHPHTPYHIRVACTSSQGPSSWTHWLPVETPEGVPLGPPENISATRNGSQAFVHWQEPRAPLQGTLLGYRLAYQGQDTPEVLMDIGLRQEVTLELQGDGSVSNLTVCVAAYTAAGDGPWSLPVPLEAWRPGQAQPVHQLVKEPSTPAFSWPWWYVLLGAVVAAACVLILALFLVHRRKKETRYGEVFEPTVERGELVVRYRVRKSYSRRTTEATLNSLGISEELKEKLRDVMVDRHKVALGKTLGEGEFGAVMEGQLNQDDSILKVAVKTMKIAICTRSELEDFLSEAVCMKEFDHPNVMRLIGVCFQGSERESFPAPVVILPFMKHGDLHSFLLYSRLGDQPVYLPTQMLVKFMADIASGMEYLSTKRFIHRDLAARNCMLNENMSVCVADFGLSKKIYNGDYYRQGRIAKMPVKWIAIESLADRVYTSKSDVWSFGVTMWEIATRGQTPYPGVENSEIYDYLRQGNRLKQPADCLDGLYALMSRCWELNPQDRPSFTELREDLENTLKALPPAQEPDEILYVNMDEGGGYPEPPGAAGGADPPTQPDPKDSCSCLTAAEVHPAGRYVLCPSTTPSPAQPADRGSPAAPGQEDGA

[3] = target: T3, TYRO3 (Homo sapiens, UniProt Q06418); assay: Microfluidic capillary electrophoresis (MCE) kinase activity assay, Tyro3; type: biochemical
T3 sequence (Q06418 41-890): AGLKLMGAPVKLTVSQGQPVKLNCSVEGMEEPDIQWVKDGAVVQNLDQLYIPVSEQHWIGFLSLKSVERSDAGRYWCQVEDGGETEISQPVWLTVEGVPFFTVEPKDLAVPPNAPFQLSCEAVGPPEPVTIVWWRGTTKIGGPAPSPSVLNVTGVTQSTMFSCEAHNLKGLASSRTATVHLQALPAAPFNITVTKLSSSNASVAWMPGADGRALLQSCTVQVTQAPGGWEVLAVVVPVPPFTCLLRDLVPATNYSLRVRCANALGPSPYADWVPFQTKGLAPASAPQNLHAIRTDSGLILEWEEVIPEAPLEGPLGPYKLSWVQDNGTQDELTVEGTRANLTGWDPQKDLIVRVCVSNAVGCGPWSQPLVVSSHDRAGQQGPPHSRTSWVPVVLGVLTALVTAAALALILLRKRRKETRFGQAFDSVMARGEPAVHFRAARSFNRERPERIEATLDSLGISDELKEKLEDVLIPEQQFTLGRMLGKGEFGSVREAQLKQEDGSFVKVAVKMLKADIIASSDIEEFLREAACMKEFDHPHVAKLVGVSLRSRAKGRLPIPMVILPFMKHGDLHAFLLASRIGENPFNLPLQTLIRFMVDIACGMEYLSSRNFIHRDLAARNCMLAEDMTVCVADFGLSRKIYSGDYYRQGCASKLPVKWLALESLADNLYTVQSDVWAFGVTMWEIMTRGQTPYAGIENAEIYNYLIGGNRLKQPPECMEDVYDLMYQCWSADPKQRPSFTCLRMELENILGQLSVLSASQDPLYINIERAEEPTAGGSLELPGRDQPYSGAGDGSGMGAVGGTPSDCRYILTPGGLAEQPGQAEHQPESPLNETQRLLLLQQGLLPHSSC

[4] = cited from earlier work

Row | IC50 ([1]; Table 2, MCE assay, ATP at Km) [nM] | IC50 ([2]; Table 2, MCE assay, ATP at Km) [nM] | IC50 ([3]; Table 2, MCE assay, ATP at Km) [nM] | SMILES | other results
1 | 100 to 1000 | 100 to 1000 | < 10 | CC(C)(C)OC(=O)N1CCN(Cc2ccc(-c3cn([C@H]4CC[C@H](O)CC4)c4nc(Nc5cc(F)cc(Cl)c5)ncc34)cc2)CC1 [Compound 28] | –
2 | < 10 | 10 to 100 | < 10 | O[C@H]1CC[C@H](n2cc(-c3ccc(CN4CCNCC4)cc3)c3cnc(Nc4cc(F)cc(Cl)c4)nc32)CC1 [Compound 29] | –
3 | < 10 | 10 to 100 | < 10 | CCN1CCN(Cc2ccc(-c3cn([C@H]4CC[C@H](O)CC4)c4nc(Nc5cc(F)cc(Cl)c5)ncc34)cc2)CC1 [Compound 30] | –
4 | < 10 | 10 to 100 | < 10 | O[C@H]1CC[C@H](n2cc(-c3ccc(CN4CCN(C5CCCC5)CC4)cc3)c3cnc(Nc4cc(F)cc(Cl)c4)nc32)CC1 [Compound 31] | –
5 | < 10 | 10 to 100 | < 10 | CN1CCC(Oc2ccc(-c3cn([C@H]4CC[C@H](O)CC4)c4nc(Nc5cc(F)cc(Cl)c5)ncc34)cc2)CC1 [Compound 37] | –
6 | – | – | – | CN1CCN(Cc2ccc(-c3cn([C@H]4CC[C@@H](O)CC4)c4nc(Nc5cc(F)cc(Cl)c5)ncc34)cc2)CC1 [Compound 39] | IC50 ([1]; Table 3, MCE assay, ATP at Km): < 10 nM; IC50 ([2]; Table 3, MCE assay, ATP at Km): 10 to 100 nM; IC50 ([3]; Table 3, MCE assay, ATP at Km): < 10 nM
7 | – | – | – | CN1CCC(Oc2ccc(-c3cn([C@H]4CC[C@H](O)CC4)c4nc(Nc5cc(F)cc(Cl)c5)ncc34)cc2)CC1 [Compound 60] | IC50 ([1]; Table 7): < 10 nM; IC50 ([2]; Table 7): 10 to 100 nM; IC50 ([3]; Table 7): < 10 nM
8 | < 10 | < 10 | < 10 | CN1CCN(Cc2ccc(-c3cn([C@H]4CC[C@H](O)CC4)c4nc(Nc5cccnc5)ncc34)cc2)CC1 [Compound 64] | –
9 | < 10 | < 10 | < 10 | CN1CCN(Cc2ccc(-c3cn([C@H]4CC[C@H](O)CC4)c4nc(Nc5cncnc5)ncc34)cc2)CC1 [Compound 66] | –
10 | – | – | – | CN1CCC(Oc2ccc(-c3cn([C@H]4CC[C@H](O)CC4)c4nc(Nc5cc(C(F)(F)F)cc(C(F)(F)F)c5)ncc34)cc2)CC1 [Compound 150, trans-4-(2-((3,5-bis(trifluoromethyl)phenyl)amino)-5-(4-((1-methylpiperidin-4-yl)oxy)phenyl)-7H-pyrrolo[2,3-d]pyrimidin-7-yl)cyclohexan-1-ol] | IC50 ([1]; Table 7): 1000 to 30000 nM; IC50 ([2]; Table 7): 1000 to 30000 nM; IC50 ([3]; Table 7): 10 to 100 nM
11 | – | – | – | CN1CCN(C(=O)c2ccc(-c3cn([C@H]4CC[C@H](O)CC4)c4nc(Nc5cc(F)cc(Cl)c5)ncc34)cc2)CC1 [Compound 156] | IC50 ([1]; Table 9): < 10 nM; IC50 ([2]; Table 9): 10 to 100 nM; IC50 ([3]; Table 9): < 10 nM
12 | – | – | – | CC(=O)Oc1ccccc1C(=O)O [aspirin] | baseline major bleeding risk (gastrointestinal or intracranial) ([4]; in vivo): 1-4%
13 | – | – | – | COC(=O)[C@H](c1ccccc1Cl)N1CCc2sccc2C1 [clopidogrel] | further increase of major bleeding risk on addition as a combination therapy ([4]; added to aspirin): 1%
